Molecules are shown by their SMILES. A value given as a limit tells only on which side of the number the result lay.

We go through 19 compounds from patent publication US10285983B2, “3-(1H-pyrrolo[2,3-B]pyridin-2-yl)-1H-pyrazolo[3,4-B] pyridines and therapeutic uses thereof” (Samumed, LLC, priority 2015, dated 2019).

The test concerns Wnt activity (Sp5-Luc reporter, SW480 colon carcinoma cells). In words: Wnt activity screening assay, Sp5-Luc reporter gene in SW480 cells. Type of test: cell-based. The settings on record: Homo sapiens; for inhibition at 10 µM: given for EC50 >10 μM, read-out: percent inhibition at 10 μM; for EC50: overnight incubation. An excerpt: The screening assay for Wnt activity is described as follows. Reporter cell lines can be generated by stably transducing cancer cell lines (e.g., colon cancer) or primary cells (e.g., IEC-6 intestinal cells) with a lentiviral construct that includes a Wnt-responsive promoter driving expression of the firefly luciferase gene.
SW480 colon carcinoma cells were transduced with a lentiviral vector expressing luciferase with a human Sp5 promoter consisting of a sequence of eight TCF/LEF binding sites. SW480 cells stably expressing the Sp5-Luc reporter gene and a hygromycin resistance gene were selected by treatment with 150 μg/mL of hygromycin for 7 days. These stably transduced SW480 cells were expanded in cell culture and used for all further screening activities. Each compound was dissolved in DMSO as a 10 mM stock and used to prepare compound source plates. Serial dilution (1:3, 10-point dose-response curves starting from 10 μM) and compound transfer was performed using the ECHO 550 (Labcyte, Sunnyvale, Calif.) into 384-well white solid bottom assay plates (Greiner Bio-One) with appropriate DMSO backfill for a final DMSO concentration of 0.1%. For Sp5-Luc reporter gene assays, the cells were plated at 4,000 cells/well in 384-well plates with medium containing 1% fetal bovine serum and incubated overnight at 37° C. and 5% CO2. Following incubation, 20 μl of BrightGlo luminescence reagent (Promega) was added to each well of the 384-well assay plates. The plates were placed on an orbital shaker for 2 min and then luminescence was quantified using the Envision (Perkin Elmer) plate reader. Readings were normalized to DMSO only treated cells, and normalized activities were utilized for EC50 calculations using the dose-response log (inhibitor) vs. response—variable slope (four parameters) nonlinear regression feature available in GraphPad Prism 5.0 (or Dotmatics). For EC50 of >10 μM, the percent inhibition at 10 μM is provided.
A general note: A reporter such as luciferase makes a cellular process visible.

Consider `CCC(=O)Nc1cncc(-c2cnc3[nH]nc(-c4cc5c(-c6cccc(F)c6)ccnc5[nH]4)c3c2)c1` [Compound 1, N-(5-(3-(4-(3-Fluorophenyl)-1H-pyrrolo[2,3-b]pyridin-2-yl)-1H-pyrazolo [3,4-b]pyridin-5-yl)pyridin-3-yl)propionamide], for which the inhibition (as a rule, the share of the control response that was lost under treatment) at 10 µM came out at 46.1% and the EC50 – broadly, the concentration giving half of the maximal effect – is above 10 µM. The corresponding values for `Fc1cccc(-c2ccnc3[nH]c(-c4n[nH]c5ncc(-c6cncc(OCc7ccccc7)c6)cc45)cc23)c1` [Compound 518, 5-(5-(Benzyloxy)pyridin-3-yl)-3-(4-(3-fluorophenyl)-1H-pyrrolo[2,3-b]pyridin-2-yl)-1H-pyrazolo[3,4-b]pyridine] are 0% and above 10 µM. The corresponding values for `CC(C)Nc1cncc(-c2cnc3[nH]nc(-c4cc5c(-c6cccnc6)ccnc5[nH]4)c3c2)c1` [Compound 96, N-Isopropyl-5-(3-(4-(pyridin-3-yl)-1H-pyrrolo[2,3-b]pyridin-2-yl)-1H-pyrazolo[3,4-b]pyridin-5-yl)pyridin-3-amine] are 30.1% and above 10 µM. On to `Fc1cccc(-c2ccnc3[nH]c(-c4n[nH]c5ncc(-c6ccccn6)cc45)cc23)c1` [Compound 28, 3-(4-(3-Fluorophenyl)-1H-pyrrolo[2,3-b]pyridin-2-yl)-5-(pyridin-2-yl)-1H-pyrazolo[3,4-b]pyridine], for which the inhibition at 10 µM came out at 15% and the EC50 is above 10 µM. The corresponding values for `Cc1ccncc1-c1cnc2[nH]nc(-c3cc4c(-c5ccncc5)ccnc4[nH]3)c2c1` [Compound 117, 5-(4-Methylpyridin-3-yl)-3-(4-(pyridin-4-yl)-1H-pyrrolo[2,3-b]pyridin-2-yl)-1H-pyrazolo[3,4-b]pyridine] are 13% and above 10 µM. For `CC(C)CC(=O)Nc1cncc(-c2cnc3[nH]nc(-c4cc5c(-c6ccc(F)cc6)ccnc5[nH]4)c3c2)c1` [Compound 30, N-(5-(3-(4-(4-Fluorophenyl)-1H-pyrrolo[2,3-b]pyridin-2-yl)-1H-pyrazolo [3,4-b]pyridin-5-yl)pyridin-3-yl)-3-methylbutanamide] the same measures were 11.9% and above 10 µM. On to `O=C(Nc1cncc(-c2cnc3[nH]nc(-c4cc5c(-c6ccccc6F)ccnc5[nH]4)c3c2)c1)C1CCCC1` [Compound 78, N-(5-(3-(4-(2-Fluorophenyl)-1H-pyrrolo[2,3-b]pyridin-2-yl)-1H-pyrazolo [3,4-b]pyridin-5-yl)pyridin-3-yl)cyclopentanecarboxamide], for which the inhibition at 10 µM amounted to 17% and the EC50 is above 10 µM. The corresponding values for `O=C(Nc1cncc(-c2cnc3[nH]nc(-c4cc5c(-c6ccncc6)ccnc5[nH]4)c3c2)c1)c1ccccc1` [Compound 123, N-(5-(3-(4-(Pyridin-4-yl)-1H-pyrrolo[2,3-b]pyridin-2-yl)-1H-pyrazolo[3,4-b]pyridin-5-yl)pyridin-3-yl)benzamide] are 5.2% and above 10 µM. Consider `c1cc(N2CCCCC2)c2cc(-c3n[nH]c4ncc(-c5cncc(CN6CCCC6)c5)cc34)[nH]c2n1` [Compound 182, 3-(4-(Piperidin-1-yl)-1H-pyrrolo[2,3-b]pyridin-2-yl)-5-(5-(pyrrolidin-1-ylmethyl)pyridin-3-yl)-1H-pyrazolo[3,4-b]pyridine], for which the inhibition at 10 µM was determined as 7.1% and the EC50 was above 10 µM. Consider `c1cnc2[nH]c(-c3n[nH]c4ncc(-c5ccncc5)cc34)cc2c1` [Compound 270, 5-(Pyridin-4-yl)-3-(1H-pyrrolo[2,3-b]pyridin-2-yl)-1H-pyrazolo[3,4-b]pyridine], for which the inhibition at 10 µM came out at 0% and the concentration giving a half-maximal response (EC50) was above 10 µM. As for `CN(C)c1cncc(-c2cnc3[nH]nc(-c4cc5c(-c6cccs6)ccnc5[nH]4)c3c2)c1` [Compound 343, N,N-Dimethyl-5-(3-(4-(thiophen-2-yl)-1H-pyrrolo[2,3-b]pyridin-2-yl)-1H-pyrazolo[3,4-b]pyridin-5-yl)pyridin-3-amine], the inhibition at 10 µM is 18.3% and the EC50 is above 10 µM.

Compound `Cc1ncc(-c2cnc3[nH]nc(-c4cc5c(-c6cc(F)cc(NCCN(C)C)c6)ccnc5[nH]4)c3c2)n1C` [Compound 781, N^1-(3-(2-(5-(1,2-Dimethyl-1H-imidazol-5-yl)-1H-pyrazolo[3,4-b]pyridin-3-yl)-1H-pyrrolo[2,3-b]pyridin-4-yl)-5-fluorophenyl)-N^2,N^2-dimethylethane-1,2-diamine] came in with an EC50 of 4.46 µM. With `Fc1ccc(-c2ccnc3[nH]c(-c4n[nH]c5ncc(-c6cncc(CN7CCC(F)(F)C7)c6)cc45)cc23)cc1` [Compound 54, 5-(5-((3,3-Difluoropyrrolidin-1-yl)methyl)pyridin-3-yl)-3-(4-(4-fluorophenyl)-1H-pyrrolo[2,3-b]pyridin-2-yl)-1H-pyrazolo[3,4-b]pyridine], the inhibition at 10 µM worked out at 8.7% and the EC50 was above 10 µM.

For `CC(C)(C)CC(=O)Nc1cncc(-c2cnc3[nH]nc(-c4cc5c(-c6ccoc6)ccnc5[nH]4)c3c2)c1` [Compound 324, N-(5-(3-(4-(Furan-3-yl)-1H-pyrrolo[2,3-b]pyridin-2-yl)-1H-pyrazolo[3,4-b]pyridin-5-yl)pyridin-3-yl)-3,3-dimethylbutanamide], the inhibition at 10 µM came out at 4.2% and the EC50 was above 10 µM. For `Fc1ccc(-c2ccnc3[nH]c(-c4n[nH]c5ncc(-c6cncc(CN7CCCCC7)c6)cc45)cc23)cc1` [Compound 43, 3-(4-(4-Fluorophenyl)-1H-pyrrolo[2,3-b]pyridin-2-yl)-5-(5-(piperidin-1-ylmethyl)pyridin-3-yl)-1H-pyrazolo[3,4-b]pyridine] the same measures were 2.8% and above 10 µM. For `O=C(Nc1cncc(-c2cnc3[nH]nc(-c4cc5c(-c6cccnc6)ccnc5[nH]4)c3c2)c1)C1CC1` [Compound 104, N-(5-(3-(4-(Pyridin-3-yl)-1H-pyrrolo[2,3-b]pyridin-2-yl)-1H-pyrazolo[3,4-b]pyridin-5-yl)pyridin-3-yl)cyclopropanecarboxamide] the same measures were 0% and above 10 µM. Turning to `Fc1ccc(-c2ccnc3[nH]c(-c4n[nH]c5ncc(-c6cncnc6)cc45)cc23)cc1` [Compound 55, 3-(4-(4-Fluorophenyl)-1H-pyrrolo[2,3-b]pyridin-2-yl)-5-(pyrimidin-5-yl)-1H-pyrazolo[3,4-b]pyridine], the inhibition at 10 µM was determined as 13.6% and the EC50 is above 10 µM. For `CN(C)CCNc1cc(F)cc(-c2ccnc3[nH]c(-c4n[nH]c5ncc(-c6cncc(NC(=O)C(C)(C)C)c6)cc45)cc23)c1` [Compound 456, N-(5-(3-(4-(3-((2-(Dimethylamino)ethyl)amino)-5-fluorophenyl)-1H-pyrrolo [2,3-b]pyridin-2-yl)-1H-pyrazolo[3,4-b]pyridin-5-yl)pyridin-3-yl)pivalamide] the same measures were 42.4% and above 10 µM. The corresponding values for `c1csc(-c2ccnc3[nH]c(-c4n[nH]c5ncc(-c6cncc(OC7CCCCC7)c6)cc45)cc23)c1` [Compound 703, 5-(5-(Cyclohexyloxy)pyridin-3-yl)-3-(4-(thiophen-2-yl)-1H-pyrrolo[2,3-b]pyridin-2-yl)-1H-pyrazolo[3,4-b]pyridine] are 38.6% and above 10 µM.
